According to PMC6576746, “Rational discovery of dual-indication multi-target PDE/Kinase inhibitor for precision anti-cancer therapy using structural systems pharmacology” (PLoS Computational Biology, 2019):

Columns and labels:
Assay in all cases: biochemical
Design in all cases: DiscoverX KinomeScan competition binding assay across human kinases; per cent of control at 10 and 100 uM
ACVRL1 = ACVRL1 (Homo sapiens, UniProt P37023); conditions: competition binding, % of control
Procedure: (§1) To validate our computational predictions, we employed a competition binding assay to detect the binding of levosimendan to 425 human kinases as well as its dose-response curve to RIOK1. The proprietary KinomeScan assay was performed by DiscoverX (Fremont, California, USA). The tests were performed at 10 μM and 100 μM concentrations of levosimendan, respectively. Assay results were reported as %control, calculated as follows: %control=(TestCompoundSignal−PositiveControlSignal)/(NegativeControlSignal−PositiveControlSignal)×100 KinomeScan assay across 452 human kinases verified our computational prediction (S1 Table). RIOK1 is one of the strongest inhibited kinases by levosimendan. The percentage control of RIOK1 is 15.0 and 0.0 under the treatment of 10 μM and 100 μM of levosimendan, respectively. […] The percentage controls of five kinases: FLT3, MAP2K5, PIP5K1A, GAK, and KIT are less than 30.0 under the treatment of both 10 μM and 100 μM of levosimendan. Both FLT3 and KIT are tyrosine protein kinases. Their inhibitors have recently been approved for the treatment of Acute Myeloid Leukemia and other types of cancers, but a combination therapy is needed to overcome rapidly emerged drug resistance, thus improve patients’ drug responses. Other kinases inhibited by levosimendan belong to serine/threonine protein kinase family (RIOK1, RIOK3, GAK, and MAP2K5) and lipid kinase family (PIP5K1A). […] As a result, levosimendan may modulate different cancer pathways from those by the tyrosine protein kinase inhibitors, and it could be a novel lead compound for a new anti-cancer therapy to overcome drug resistance of existing drugs or to target different types of cancers through polypharmacology or drug combination.

BRAF(V600E) = BRAF(V600E) (Homo sapiens, UniProt P15056, V600E); conditions: competition binding, % of control; read-out: Percent Control (100 uM Levosimendan)
Sequence of BRAF(V600E) (P15056 whole entry V600E): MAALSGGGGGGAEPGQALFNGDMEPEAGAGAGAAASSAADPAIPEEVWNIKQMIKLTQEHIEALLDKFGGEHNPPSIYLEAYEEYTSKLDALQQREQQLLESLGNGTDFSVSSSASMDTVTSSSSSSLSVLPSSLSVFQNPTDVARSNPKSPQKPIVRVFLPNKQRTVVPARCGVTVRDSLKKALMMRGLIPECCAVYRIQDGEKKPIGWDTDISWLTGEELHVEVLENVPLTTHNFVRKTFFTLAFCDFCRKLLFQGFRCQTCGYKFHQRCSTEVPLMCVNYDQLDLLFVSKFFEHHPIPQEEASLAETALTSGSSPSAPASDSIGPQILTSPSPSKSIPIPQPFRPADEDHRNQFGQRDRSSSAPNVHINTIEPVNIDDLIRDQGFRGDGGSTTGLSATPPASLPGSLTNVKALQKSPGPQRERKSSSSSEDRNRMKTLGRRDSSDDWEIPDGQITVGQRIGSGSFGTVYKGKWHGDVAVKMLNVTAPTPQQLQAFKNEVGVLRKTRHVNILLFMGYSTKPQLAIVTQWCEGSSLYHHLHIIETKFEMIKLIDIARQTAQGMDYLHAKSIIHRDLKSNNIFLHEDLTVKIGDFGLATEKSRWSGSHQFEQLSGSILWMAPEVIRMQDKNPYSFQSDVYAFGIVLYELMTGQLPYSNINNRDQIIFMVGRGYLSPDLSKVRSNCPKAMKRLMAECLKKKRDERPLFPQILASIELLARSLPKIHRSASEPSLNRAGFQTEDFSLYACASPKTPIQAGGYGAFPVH
Procedure: as §1

CSNK1G1 = CSNK1G1 (Homo sapiens, UniProt Q9HCP0); conditions: competition binding, % of control; read-out: Percent Control (100 uM Levosimendan)
Procedure: as §1

EGFR(E746-A750del) = EGFR(E746-A750del) (Homo sapiens, UniProt P00533, DEL746-750); conditions: competition binding, % of control; read-out: Percent Control (100 uM Levosimendan)
Procedure: as §1

EPHA5 = EPHA5 (Homo sapiens, UniProt P54756); conditions: competition binding, % of control; read-out: Percent Control (100 uM Levosimendan)
Sequence of EPHA5 (P54756 whole entry): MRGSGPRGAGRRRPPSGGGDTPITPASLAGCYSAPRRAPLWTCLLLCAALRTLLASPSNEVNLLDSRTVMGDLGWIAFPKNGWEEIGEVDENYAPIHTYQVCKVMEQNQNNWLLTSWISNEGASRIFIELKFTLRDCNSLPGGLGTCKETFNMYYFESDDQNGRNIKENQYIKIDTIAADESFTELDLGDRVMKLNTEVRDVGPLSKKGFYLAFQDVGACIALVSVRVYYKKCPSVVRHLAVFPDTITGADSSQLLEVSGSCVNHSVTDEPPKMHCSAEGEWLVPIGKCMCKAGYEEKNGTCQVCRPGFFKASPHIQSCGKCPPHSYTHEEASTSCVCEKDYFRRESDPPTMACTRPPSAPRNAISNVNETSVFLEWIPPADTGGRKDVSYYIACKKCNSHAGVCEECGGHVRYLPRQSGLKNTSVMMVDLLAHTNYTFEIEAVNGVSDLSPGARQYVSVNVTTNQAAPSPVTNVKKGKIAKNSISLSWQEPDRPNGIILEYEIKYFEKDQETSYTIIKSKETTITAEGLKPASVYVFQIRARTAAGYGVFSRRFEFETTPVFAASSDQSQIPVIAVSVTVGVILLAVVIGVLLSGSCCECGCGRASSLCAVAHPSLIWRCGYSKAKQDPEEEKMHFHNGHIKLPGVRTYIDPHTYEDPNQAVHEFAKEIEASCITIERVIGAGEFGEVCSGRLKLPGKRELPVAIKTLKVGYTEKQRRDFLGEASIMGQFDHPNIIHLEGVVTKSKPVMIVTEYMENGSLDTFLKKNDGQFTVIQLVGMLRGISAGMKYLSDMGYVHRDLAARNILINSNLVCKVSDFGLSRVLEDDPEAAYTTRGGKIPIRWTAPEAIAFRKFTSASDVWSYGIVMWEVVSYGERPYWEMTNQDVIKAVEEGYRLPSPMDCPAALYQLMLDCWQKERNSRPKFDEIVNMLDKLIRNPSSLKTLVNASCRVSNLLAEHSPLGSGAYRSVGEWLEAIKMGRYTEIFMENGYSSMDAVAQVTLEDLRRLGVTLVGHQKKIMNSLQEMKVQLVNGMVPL
Procedure: as §1

FES = FES (Homo sapiens, UniProt P07332); conditions: competition binding, % of control; read-out: Percent Control (100 uM Levosimendan)
Procedure: as §1

FGFR3 = FGFR3 (Homo sapiens, UniProt P22607); conditions: competition binding, % of control; read-out: Percent Control (100 uM Levosimendan)
Procedure: as §1

FLT3-autoinhibited = FLT3-autoinhibited (Homo sapiens, UniProt P36888); conditions: competition binding, % of control; read-out: Percent Control (100 uM Levosimendan)
Procedure: as §1

FLT4 = FLT4 (Homo sapiens, UniProt P35916); conditions: competition binding, % of control
Sequence of FLT4 (P35916 whole entry): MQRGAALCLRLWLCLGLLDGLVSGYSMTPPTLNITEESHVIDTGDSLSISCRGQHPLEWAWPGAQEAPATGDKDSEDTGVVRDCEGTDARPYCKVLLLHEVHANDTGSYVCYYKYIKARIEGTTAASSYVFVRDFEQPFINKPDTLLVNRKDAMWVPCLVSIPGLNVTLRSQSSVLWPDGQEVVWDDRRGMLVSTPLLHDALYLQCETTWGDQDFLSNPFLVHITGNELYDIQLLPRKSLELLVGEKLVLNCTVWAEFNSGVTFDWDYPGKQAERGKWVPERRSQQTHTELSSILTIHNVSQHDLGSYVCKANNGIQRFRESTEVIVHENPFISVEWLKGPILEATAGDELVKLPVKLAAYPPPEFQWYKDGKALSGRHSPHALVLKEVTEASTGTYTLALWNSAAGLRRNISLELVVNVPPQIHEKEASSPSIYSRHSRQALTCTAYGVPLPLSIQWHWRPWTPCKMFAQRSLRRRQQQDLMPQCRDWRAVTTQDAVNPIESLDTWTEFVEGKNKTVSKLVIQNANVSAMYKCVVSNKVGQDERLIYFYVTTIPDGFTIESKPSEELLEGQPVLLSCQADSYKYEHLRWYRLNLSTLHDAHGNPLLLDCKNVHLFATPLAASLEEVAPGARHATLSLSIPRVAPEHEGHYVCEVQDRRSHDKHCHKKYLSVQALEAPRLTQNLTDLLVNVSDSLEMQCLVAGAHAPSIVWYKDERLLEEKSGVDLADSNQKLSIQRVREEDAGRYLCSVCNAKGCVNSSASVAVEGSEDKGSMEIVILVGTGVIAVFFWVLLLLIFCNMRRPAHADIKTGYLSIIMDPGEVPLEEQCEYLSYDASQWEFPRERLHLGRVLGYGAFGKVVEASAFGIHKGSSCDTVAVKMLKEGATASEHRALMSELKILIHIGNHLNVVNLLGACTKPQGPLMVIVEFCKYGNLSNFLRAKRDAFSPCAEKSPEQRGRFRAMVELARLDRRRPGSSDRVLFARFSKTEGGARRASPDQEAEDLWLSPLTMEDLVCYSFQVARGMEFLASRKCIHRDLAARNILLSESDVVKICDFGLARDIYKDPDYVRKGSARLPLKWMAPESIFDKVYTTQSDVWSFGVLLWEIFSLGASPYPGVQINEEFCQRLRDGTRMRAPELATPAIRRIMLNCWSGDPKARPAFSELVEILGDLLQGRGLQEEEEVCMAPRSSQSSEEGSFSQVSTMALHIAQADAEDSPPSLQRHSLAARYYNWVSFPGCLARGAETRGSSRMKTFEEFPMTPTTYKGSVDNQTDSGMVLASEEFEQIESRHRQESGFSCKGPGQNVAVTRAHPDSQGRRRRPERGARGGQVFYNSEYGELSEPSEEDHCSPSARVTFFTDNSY
Procedure: as §1

GRK2 = GRK2 (Homo sapiens, UniProt P25098); conditions: competition binding, % of control; read-out: Percent Control (100 uM Levosimendan)
Procedure: as §1

GSK3A = GSK3A (Homo sapiens, UniProt P49840); conditions: competition binding, % of control; read-out: Percent Control (100 uM Levosimendan)
Procedure: as §1

MAST1 = MAST1 (Homo sapiens, UniProt Q9Y2H9); conditions: competition binding, % of control; read-out: Percent Control (100 uM Levosimendan)
Procedure: as §1

NEK3 = NEK3 (Homo sapiens, UniProt P51956); conditions: competition binding, % of control; read-out: Percent Control (100 uM Levosimendan)
Sequence of NEK3 (P51956 whole entry): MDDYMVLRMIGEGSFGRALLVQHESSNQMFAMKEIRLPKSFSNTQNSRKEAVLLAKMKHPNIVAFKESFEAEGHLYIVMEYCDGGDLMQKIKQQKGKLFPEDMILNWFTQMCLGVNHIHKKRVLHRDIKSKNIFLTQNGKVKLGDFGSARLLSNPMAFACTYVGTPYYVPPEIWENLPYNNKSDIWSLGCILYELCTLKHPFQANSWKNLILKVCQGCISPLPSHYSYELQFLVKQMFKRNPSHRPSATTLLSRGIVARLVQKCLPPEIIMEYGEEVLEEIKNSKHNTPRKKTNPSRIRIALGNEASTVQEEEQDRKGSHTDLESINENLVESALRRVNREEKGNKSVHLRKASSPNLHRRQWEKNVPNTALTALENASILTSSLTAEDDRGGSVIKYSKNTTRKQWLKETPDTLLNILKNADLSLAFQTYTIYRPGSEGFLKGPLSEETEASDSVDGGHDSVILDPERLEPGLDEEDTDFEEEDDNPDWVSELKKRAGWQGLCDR
Procedure: as §1

PIK3C2G = PIK3C2G (Homo sapiens, UniProt O75747); conditions: competition binding, % of control; read-out: Percent Control (100 uM Levosimendan)
Procedure: as §1

PKAC-alpha = biological target: T1, PKAC-alpha (Homo sapiens, UniProt P17612); conditions: competition binding, % of control; read-out: Percent Control (100 uM Levosimendan)
T1 construct: gene PRKACA
Procedure: as §1

PRKCE = PRKCE (Homo sapiens, UniProt Q02156); conditions: competition binding, % of control; read-out: Percent Control (100 uM Levosimendan)
Procedure: as §1

RIPK4 = RIPK4 (Homo sapiens, UniProt P57078); conditions: competition binding, % of control; read-out: Percent Control (100 uM Levosimendan)
Procedure: as §1

TTK = TTK (Homo sapiens, UniProt P33981); conditions: competition binding, % of control; read-out: Percent Control (100 uM Levosimendan)
Sequence of TTK (P33981 whole entry): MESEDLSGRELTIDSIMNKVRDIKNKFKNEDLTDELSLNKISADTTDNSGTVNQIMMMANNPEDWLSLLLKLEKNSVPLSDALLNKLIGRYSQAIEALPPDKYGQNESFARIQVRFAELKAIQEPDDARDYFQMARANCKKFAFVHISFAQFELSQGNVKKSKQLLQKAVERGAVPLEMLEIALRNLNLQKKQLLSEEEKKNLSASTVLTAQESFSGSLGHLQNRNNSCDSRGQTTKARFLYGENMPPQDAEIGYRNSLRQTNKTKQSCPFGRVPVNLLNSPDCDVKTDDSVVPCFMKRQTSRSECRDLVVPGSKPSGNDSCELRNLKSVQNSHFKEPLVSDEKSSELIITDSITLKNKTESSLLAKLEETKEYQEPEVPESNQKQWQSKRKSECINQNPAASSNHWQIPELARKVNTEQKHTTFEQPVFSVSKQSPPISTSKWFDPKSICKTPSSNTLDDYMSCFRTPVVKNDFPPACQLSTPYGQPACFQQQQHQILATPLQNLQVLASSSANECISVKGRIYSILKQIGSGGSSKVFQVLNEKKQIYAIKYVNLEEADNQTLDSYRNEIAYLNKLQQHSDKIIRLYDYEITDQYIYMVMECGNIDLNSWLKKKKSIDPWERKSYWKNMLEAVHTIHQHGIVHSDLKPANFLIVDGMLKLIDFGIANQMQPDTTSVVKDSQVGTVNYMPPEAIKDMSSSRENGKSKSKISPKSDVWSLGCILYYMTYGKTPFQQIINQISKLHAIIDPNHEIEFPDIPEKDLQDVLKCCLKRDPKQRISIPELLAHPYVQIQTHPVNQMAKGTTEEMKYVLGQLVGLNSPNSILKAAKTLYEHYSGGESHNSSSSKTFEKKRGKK
Procedure: as §1

YANK2 = biological target: T2, YANK2 (Homo sapiens, UniProt Q9NY57); conditions: competition binding, % of control; read-out: Percent Control (100 uM Levosimendan)
T2 construct: gene STK32B
Procedure: as §1

[1] = read-out: Percent Control (10 uM Levosimendan)
[2] = read-out: Percent Control (100 uM Levosimendan)

Sequence of ACVRL1 (P37023 whole entry): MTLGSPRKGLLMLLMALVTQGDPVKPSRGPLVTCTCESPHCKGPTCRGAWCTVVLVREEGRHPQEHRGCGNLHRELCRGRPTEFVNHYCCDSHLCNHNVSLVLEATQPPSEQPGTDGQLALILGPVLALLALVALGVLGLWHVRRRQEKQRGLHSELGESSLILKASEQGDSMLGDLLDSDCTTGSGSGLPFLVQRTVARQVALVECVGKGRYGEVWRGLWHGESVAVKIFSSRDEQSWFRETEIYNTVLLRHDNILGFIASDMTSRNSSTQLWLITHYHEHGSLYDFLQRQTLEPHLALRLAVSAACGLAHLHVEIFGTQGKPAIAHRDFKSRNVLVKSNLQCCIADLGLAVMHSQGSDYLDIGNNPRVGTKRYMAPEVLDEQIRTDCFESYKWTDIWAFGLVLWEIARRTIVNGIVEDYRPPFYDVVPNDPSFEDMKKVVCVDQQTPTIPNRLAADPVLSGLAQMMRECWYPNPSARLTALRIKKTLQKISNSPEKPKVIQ

- remaining binding at 10 µM (ACVRL1; [1]): 71%
- remaining binding at 100 µM (ACVRL1; [2]): 30%
- remaining binding at 100 µM (BRAF(V600E)): 78%
- remaining binding at 100 µM (CSNK1G1): 78%
- remaining binding at 100 µM (EGFR(E746-A750del)): 63%
- remaining binding at 100 µM (EPHA5): 100%
- remaining binding at 100 µM (FES): 76%
- remaining binding at 100 µM (FGFR3): 71%
- remaining binding at 100 µM (FLT3-autoinhibited): 98%
- remaining binding at 10 µM (FLT4; [1]): 100%
- remaining binding at 100 µM (FLT4; [2]): 49%
- remaining binding at 100 µM (GRK2): 100%
- remaining binding at 100 µM (GSK3A): 100%
- remaining binding at 100 µM (MAST1): 100%
- remaining binding at 100 µM (NEK3): 78%
- remaining binding at 100 µM (PIK3C2G): 100%
- remaining binding at 100 µM (PKAC-alpha): 94%
- remaining binding at 100 µM (PRKCE): 100%
- remaining binding at 100 µM (RIPK4): 99%
- remaining binding at 100 µM (TTK): 86%
- remaining binding at 100 µM (YANK2): 92%
Structure (SMILES): C[C@@H]1CC(=O)NN=C1c1ccc(NN=C(C#N)C#N)cc1 [levosimendan]
